Values quoted from earlier work as cited in patent US12507891B2 (priority 2020, dated 2025).

Settings: incrementally increased propofol hypnosis

SMILES: CC(C)c1cccc(C(C)C)c1O [propofol]
- PUAL under propofol hypnosis: PUAL values remain within normal ranges until a subject becomes completely unresponsive
